Patent US20090136968A1, “Novel in vitro methods for studying receptors recognizing volatile compounds” (Chemcom S. A., priority 2005, published 2009)

Tests used:
mOR-I7 [1] = target: T1, mOR-I7 (Mus musculus, UniProt Q9QWU6); conditions: literature (references); cited from earlier work
T1 construct: expressed in transfected cells; host or cells: HEK 293T
T1 sequence (Q9QWU6 1-327): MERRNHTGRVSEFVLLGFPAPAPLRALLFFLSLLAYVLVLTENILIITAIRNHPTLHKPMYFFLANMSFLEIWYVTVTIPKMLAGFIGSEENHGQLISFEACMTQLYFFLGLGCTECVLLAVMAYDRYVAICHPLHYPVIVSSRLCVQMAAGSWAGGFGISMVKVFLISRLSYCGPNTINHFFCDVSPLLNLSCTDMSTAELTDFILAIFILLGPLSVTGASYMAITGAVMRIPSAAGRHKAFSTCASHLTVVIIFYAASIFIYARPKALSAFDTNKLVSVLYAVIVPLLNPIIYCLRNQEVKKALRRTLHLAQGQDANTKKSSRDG

mOR-I7 [2] = target: T1, mOR-I7; test: Single cell calcium imaging (Fura2) on HEK 293T overexpressing mOR-I7, with or without mucus in buffer; type: cell-based; conditions: 500 μM octanal
Protocol: FIG. 2: Bovine olfactory mucus enhances hORL-424 activation by citronellal. (A and B) Calcium measurement was performed after activation of hORL-424 with citronellal in the presence of different amount of bovine olfactory mucus. 0 to 10 μl of mucus (0 to 10 μg of total protein) have been added to assay buffer. Calcium flux has been followed on FDSS (Hamamatsu Photonics K.K. plate reader, Japan) using Fluo4 as fluorescent dye. Histograms represent fluorescent signal observed in the presence or in the absence of 10 μl of bovine olfactory mucus. (C) Concentration response curve of HEK 293T overexpressing hORL-424 treated with citronellal. Gray boxes represent values obtained in the presence of bovine olfactory mucus. Calcium flux measurements have been performed on FDSS (Hamamatsu Photonics K.K. plate reader, Japan). (D and E) Traces obtained during single cell calcium imaging after addition of 500 μM octanal on HEK 293T overexpressing mOR-I7 in the absence (D) or in the presence of 10 μl of bovine olfactory mucus (E). Fura2 was used as fluorescent dye. Results are expressed as F340/F380 ratiometric measurement.
This bovine olfactory mucus property was also observed on a different OR in other assay format. FIGS. 2 D and E show traces obtained from single cell calcium imaging performed on HEK 293T overexpressing mOR-I7 and activated by octanal. In this assay, Fura2 was used as calcium tracer.

mOR-I7 [3] = target: T1, mOR-I7; test: Novel olfactory functional assay (CCBSA), microplate calcium flux (Fluo4, FDSS) on HEK 293T overexpressing mOR-I7; type: cell-based; conditions: for hit / potential ligand of mOR-I7 in screening of 30 odorants: carrier fraction 4 (bOBP and BSA) incubated with 16 μl of 1M odorant, ratio mOR-I7 on Wt, standardized to 1 mM ATP
Protocol: A solution of BP including SA, OBP and/or olfactory mucus (see concentration in the text) was incubated in the presence of odorant in a sealed flask for 16 hours at 4° C. (FIG. 3A). Such incubated-BP solution was then used as tested complex on olfactory receptor-expressing cells. Prior to incubation with such complex, cells were incubated for 1 hour with 4 μM Fluo4-AM (Molecular Probe) in the presence of 1 mM probenecid, and then rinsed twice with Fluo4-AM free HBSS buffer. After injection of odorant-BP complex on OR expressing cells, calcium flux was followed by measuring fluorescence at 520 nm ([…]) on FDSS, a plate reader from Hamamatsu Photonics K.K. (Japan) at 25° C.
In an attempt to be closer to physiological process of olfaction and thereof to increase specificity and sensitivity of the cell-based assay described above, a novel olfactory functional assay was developed. Most of the time, mammalian smells volatile odorant molecules. However in the cell-based assay described above as in most cell-based assays, odorant molecules were injected into aqueous buffer. Such injection may lead to formation of micelles that can alter efficacy and specificity of ligands. Therefore a cell-based assay was developed focusing an a better solubilization of odorants. In summary, in a sealed flask, bovine olfactory mucus was incubated in the presence of an odorant (FIG. 3A). It was hereby tested if an odorant would be trapped and solubilized in that fluid. Thereafter, such solubilized odorant was injected onto cultured-cells overexpressing an olfactory receptor. Activation of this receptor could then be followed by conventional assay including fluorescent (FIGS. 3 B and C) and luminescent calcium assays.
For this novel assay, mOR-I7 activation was assessed by octanal. A constant volume of olfactory mucus was incubated in the presence of increasing amount of octanal ranging from 0 to 16 μl of a solution of 1M octanal. After 16 hours incubation at 4° C., bovine olfactory mucus was injected on HEK 293T overexpressing mOR-I7. Calcium flux was followed with Fluo4 on FDSS, a plate reader from Hamamatsu Photonics K.K. (Japan).
Capacity of fraction 4 to fulfil the role of odorant solubilizator was assessed in the newly proposed assay. Screening of 30 odorant molecules (FIG. 5A) was performed on HEK 293T wild type (FIG. 5C) or overexpressing mOR-I7 (FIG. 5B). Fraction 4 was incubated overnight at 4° C. […] These odorants led to at least one fold more activation of HEK 293T overexpressing mOR-I7 than the wild type counterpart. They can be classified into two groups. One group (FIG. 5 E (a) to (e)) gathers molecules that fit the olfactophore 1 depicted in FIG. 5 E (j). They are schematically made of 2 electronegative poles distanced by 6 carbons. They all contain a 6-8 carbon chain ended by an electronegative group as depicted by olfactophore 2 represented in FIG. 5 E (k).
However this fraction 4 contained two major proteins, bOBP and BSA. Thus the results of said Example could in this approach not rule out any implication of BSA into fraction 4 properties. Therefore the capacity of BSA to solubilize and thereof to enhance the efficacy of odorants in the novel cell based olfactory functional assay as described by the present invention has been tested. To be as close as possible to BSA concentration observed in fraction 4. BSA concentration was set up at 5×10^−6 M for the following experiments (marked by an arrow on FIG. 6 G). Fraction 4 and a solution of fatty acid-free BSA were incubated at 4° C. for 16 hours in the presence of increasing volume of 1M octanal. So-incubated solutions were then applied onto HEK 293T wt or overexpressing mOR-I7. Calcium-flux was followed on a plate reader (Hamamatsu Photonics K.K., Japan) with fluo4 as fluorescent dye (FIG. 6 A to F). […] Such phenomenon is usually observed in such fluorescence assay when increasing ligand concentrations are injected. […]

[4] = fraction 4 or BSA solution incubated with increasing volume of 1M octanal

CCCCCCCC=O [octanal]
known activation of mOR-I7 (mOR-I7 [1]): activated specifically | mOR-I7 activation (calcium flux) (mOR-I7 [2]; absence of mucus): faint activation | mOR-I7 activation (calcium flux) (mOR-I7 [2]; presence of 10 μl bovine olfactory mucus, ATP positive control): calcium flux similar to the one observed after addition of ATP | hits / potential ligands of mOR-I7 through the 4 screenings (mOR-I7 [3]; BSA as carrier, calcium flux and cAMP screenings together): hits | ligands of mOR-I7 in two independent calcium flux screenings of 30 odorants (mOR-I7 [3]; BSA as carrier, standardized to 100 μM ATP): consistent | fluorescence intensity (calcium flux) (mOR-I7 [3]; bovine olfactory mucus incubated with 0 to 16 μl of 1M octanal, 16 hours 4° C.): proportional to the volume of odorant | hit / potential ligand of mOR-I7 in screening of 30 odorants (mOR-I7 [3]): potential ligands of mOR-I7 | hit / potential ligand of mOR-I7 in screening of 30 odorants (mOR-I7 [3]; listed as 1-octanal): hits | calcium flux in HEK 293T overexpressing mOR-I7 (mOR-I7 [3]; fraction 4 or BSA solution (5×10^−6 M) incubated with increasing volume of 1M octanal, kinetics over 300 seconds): calcium flux was detected | dependence of fluorescence intensity on amount of odorant (mOR-I7 [3]; [4]): proportional to the amount of odorant | time required to reach maximum fluorescence (mOR-I7 [3]; [4]): decreased when odorant volume increased
